Where “and” joins values, the source holds several entries; their conditions need not be identical. Equal entries are not always repeated.

Data set [1] in a line: MRI imaging (1.5 Tesla, T1) of rat bearing subcutaneous F98 glioma tumor after intravenous injection. The data set is classed as in vivo. How it is done:
A male rat bearing a subcutaneous F98 glioma tumor in its thigh was anesthetized and a catheter inserted into the femoral vein. The animal was then placed in a 1.5 Tesla clinical MRI scanner with a head coil around it. T1 images were acquired before injection. The sample in example 2 was used without further purification, and an amount was injected, corresponding to a dose of 0.1 mmol Gd/kg, which is the recommended dose/weight for gadodiamide use in vivo. Images were acquired using both T1 and T2 modes. […] For comparison, a rat bearing a similar tumor was injected with 0.1 mmol gadodiamide/kg. […] Many of the smaller vesicles filtered through the kidneys, since at 30 min post injection not only was contrast seen in the urine in the bladder (as also seen with the gadodiamide only preparation), but high contrast was seen on the surface of the urine in the bladder. This may be explained by the lower density of the lipid-containing vesicles, allowing them to float on the surface. […] It should be noted that whatever the fate of the contrast agent is, only an FDA approved standard amount was injected, and should not cause any toxic effects.

For data set [2] the following is noted: in vivo; cited from earlier work.
Setting [3] is: abdominal aorta, 10 min after injection.
[4] abbreviates: hepatic portal vein, 10 min after injection.
Where [5] appears, read: inferior vena cava, 10 min after injection.

On to `CNC(=O)CN(CCN(CCN(CC(=O)[O-])CC(=O)NC)CC(=O)[O-])CC(=O)[O-].[Gd+3]` [gadodiamide, Gadolinium diethylenetriaminepentaacetic acid bismethyl-amide], for which the “maximal tumor contrast relative to rat given vesicle-loaded gadodiamide” value in data set [1] (0.1 mmol gadodiamide/kg, rat with similar tumor) was “approximately one-half”. Further, in data set [1] (F98 glioma tumor in thigh, 10 min after i.v. injection, 0.1 mmol Gd/kg), the “After injection (HU), tumor” value was 828±82 HU and 828 HU. For the same molecule, the “After injection (HU), Abdominal Aorta” value in data set [1] (abdominal aorta, 10 min after i.v. injection, 0.1 mmol Gd/kg) was 627±76 HU and 627 HU. In data set [1] (setting [3]), the “Contrast change (HU), Abdominal Aorta” value was 9 HU and the “Percent change, Abdominal Aorta” value is listed as 1%. The “After injection (HU), Heart” value in data set [1] (heart, 10 min after i.v. injection, 0.1 mmol Gd/kg, T1) was 540±137 HU and 540 HU. Further, in data set [1] (heart, 10 min after injection), the “Contrast change (HU), Heart” value is recorded as 91 HU and the “Percent change, Heart” value was 20%. The “After injection (HU), hepatic portal vein” value in data set [1] (hepatic portal vein, 10 min after i.v. injection, 0.1 mmol Gd/kg) was 774±47 HU and 774 HU. Further, in data set [1] (setting [4]), the “Contrast change (HU), hepatic portal vein” value came out at 96 HU and the “Percent change, hepatic portal vein” value stood at 14%. In addition, the “After injection (HU), Inferior vena cava” value in data set [1] (inferior vena cava, 10 min after i.v. injection, 0.1 mmol Gd/kg) is 770±49 HU and 770 HU. In data set [1] (setting [5]), the “Contrast change (HU), Inferior vena cava” value was found to be 10 HU and the “Percent change, Inferior vena cava” value worked out at 1%. Further, the “After injection (HU), Kidney” value in data set [1] (kidney, 10 min after i.v. injection, 0.1 mmol Gd/kg) was 1411±136 HU and 1411 HU. In addition, in data set [1] (kidney, 10 min after injection), the “Contrast change (HU), Kidney” value was found to be 848 HU and the “Percent change, Kidney” value amounted to 151%. Besides, the “After injection (HU), Liver” value in data set [1] (liver, 10 min after i.v. injection, 0.1 mmol Gd/kg) was 831±27 HU and 804±58 HU and 831 HU. Moreover, in data set [1] (liver, 10 min after injection), the “Contrast change (HU), Liver” value was determined as 16 HU and the “Percent change, Liver” value is recorded as 2%. The “vascular contrast in T1 mode” value in data set [1] (minutes after injection up to 20 minutes or more, 0.1 mmol/kg) was “not significantly contrasted”. Besides, in data set [1] (tumor, 10 min after injection), the “Contrast change (HU), tumor” value was found to be 321 HU and the “Percent change, tumor” value is reported as 63%. Also, the blood half-life in data set [2] is approximately 20 min.

For `O=C([O-])CN(CCN(CC(=O)[O-])CC(=O)O)CCN(CC(=O)[O-])CC(=O)O.[Gd+3]` [Gd-DTPA, gadolinium diethytriaminepentaacetic acid], in data set [2], the blood half-life is recorded as approximately 20 min.
